Laboratory results published in ChEMBL document CHEMBL1201862, “PubChem BioAssay data set” (2004).
Blank lines part the entries; values can stand above or below the compound they belong to. Activity calls are given as the source filed them.

Tests used:
[1] = NIH-3T3 fibroblast cytotoxicity, dose response, cytotoxicity control, cell-based, fluorescence, Alamar Blue, secondary assay (AID 2327); assay type: functional;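 further: NIH-3T3 mouse fibroblasts cultured with fluconazole at 8 µg/mL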
[2] = target: T1, Heat shock factor protein 1 (Mus musculus, UniProt P38532); assay: decrease of HSF1-responsive luciferase luminescence – cell-based, NIH3T3, dose retest, confirmation (AID 2382); assay type: functional;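 further: NIH3T3 fibroblasts with HSF1-driven luciferase reporter stressed by proteasome inhibitor MG132; luminescence from HSF1-driven luciferase expression after 8 hours of MG132 stress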
T1 sequence (P38532 whole entry): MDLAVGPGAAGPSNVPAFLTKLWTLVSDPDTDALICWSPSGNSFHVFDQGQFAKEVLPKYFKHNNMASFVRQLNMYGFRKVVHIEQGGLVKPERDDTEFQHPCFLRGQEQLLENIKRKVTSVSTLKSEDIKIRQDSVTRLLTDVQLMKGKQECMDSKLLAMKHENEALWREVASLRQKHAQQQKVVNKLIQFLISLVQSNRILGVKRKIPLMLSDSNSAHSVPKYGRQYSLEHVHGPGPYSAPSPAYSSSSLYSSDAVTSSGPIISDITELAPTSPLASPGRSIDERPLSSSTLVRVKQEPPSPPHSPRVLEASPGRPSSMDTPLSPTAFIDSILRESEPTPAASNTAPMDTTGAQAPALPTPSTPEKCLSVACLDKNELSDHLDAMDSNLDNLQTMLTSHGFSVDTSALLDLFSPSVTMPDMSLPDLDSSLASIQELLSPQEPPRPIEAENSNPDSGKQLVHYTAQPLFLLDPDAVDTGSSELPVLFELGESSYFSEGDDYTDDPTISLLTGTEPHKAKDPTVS

[3] = fluconazole-exposed Candida albicans growth modulators – fluorescence, retest, confirmation (AID 2467); assay type: functional, cell-based
[4] = Luminescence Cell-Based Dose Retest to Confirm Inhibitors of Cancer Stem Cells. [Related pubchem assays (depositor defined):AID2717, AID2721]; assay type: functional; conditions: Homo sapiens
[5] = viability loss of HMLE_sh_eGFP cells – cell-based, luminescence, counter-screen for HMLE_sh_ECad selective toxicity project, dose response (AID 463074); assay type: functional, Homo sapiens;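 further: HMLE human mammary epithelial cells expressing control shRNA against eGFP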
HEK293 [6] = assay: EBV LMP1 TES2 canonical NF-kB signalling blockers – cell-based, HEK293, luciferase, cherry-pick, dose response (AID 588343); assay type: functional; conditions: Homo sapiens
[7] = target: Latent membrane protein 1 (Human herpesvirus 4 (strain B95-8), UniProt P03230); assay: LMP1 TES1 pathway selectivity over dsRED control – imaging, HEK293T, dual-color eGFP/dsRED, cherry-picks, selectivity assay for LMP1 NF-kB inhibitor project, dose response (AID 588398); assay type: functional, cell-based
HEK293 [8] = assay: HEK293T cell viability loss, resazurin readout – resazurin fluorescence, cytotoxicity control for NF-kB activator project, SAR follow-up (AID 493251); assay type: functional, cell-based; conditions: Homo sapiens
Jurkat = assay: SAR Analysis of small molecule inhibitors of T-cell specific antigen receptor-induced NF-kB activation in a Jurkat cell line using a luminescence assay - Set 2. [Related pubchem assays (depositor defined):AID435003, AID435012, AID465]; assay type: functional, cell-based; conditions: Homo sapiens
HEK293 [9] = assay: SAR Analysis of small molecule inhibitors of T-cell specific antigen receptor-induced NF-kB activation in a HEK-293T cell line using a luminescence assay - Set 2. [Related pubchem assays (depositor defined):AID435003, AID435012, AID489026]; assay type: functional, cell-based; conditions: Homo sapiens
[10] = target: FAD-linked sulfhydryl oxidase ALR (Homo sapiens, UniProt P55789); assay: ALR-catalysed DTT oxidation blockers – biochemical, H2O2 detection, luminescence, cherry-pick, dose response (AID 493248)
Interleukin-8 [11] = target: T2, Interleukin-8 (Homo sapiens, UniProt P10145); assay: Dose Response confirmation of uHTS small molecule hits for cystic fibrosis induced NFkb Inhibitors in a TNFa-induced IL8 counterscreen.; assay type: functional; conditions: read-out: IC50_Mean
Interleukin-8 [12] = target: T2, Interleukin-8; assay: Dose Response confirmation of uHTS small molecule hits for cystic fibrosis induced NFkb Inhibitors in a PAF-induced IL8 counterscreen.; assay type: functional; conditions: read-out: IC50_Mean
[13] = target: T3, Neuropeptides B/W receptor type 1 (Homo sapiens, UniProt P48145); assay: human NPBW1 receptor blockade, IC50 – cell-based, fluorescence, dose response, set 5, late-stage follow-up (AID 588566); assay type: functional
T3 sequence (P48145 whole entry): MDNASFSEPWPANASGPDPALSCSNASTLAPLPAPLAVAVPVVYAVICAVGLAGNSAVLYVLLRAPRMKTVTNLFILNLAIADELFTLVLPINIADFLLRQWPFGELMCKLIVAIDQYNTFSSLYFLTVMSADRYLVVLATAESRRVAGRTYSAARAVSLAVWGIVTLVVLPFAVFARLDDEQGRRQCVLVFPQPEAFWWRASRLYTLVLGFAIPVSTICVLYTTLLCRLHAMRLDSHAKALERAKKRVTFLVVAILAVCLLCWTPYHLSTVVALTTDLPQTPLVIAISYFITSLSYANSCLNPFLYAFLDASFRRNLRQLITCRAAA

[14] = target: Melanin-concentrating hormone receptor 1 (Homo sapiens, UniProt Q99705); assay: Late-stage fluorescence-based counterscreen for antagonists of the G-protein coupled receptor 7 (GPR7): cell-based dose response assay to identify antagonists of the melanin-concentrating hormone receptor 1 (MCHR1) Set 5.; assay type: functional
[15] = target: T4, Apoptotic protease-activating factor 1 (Homo sapiens, UniProt O14727); assay: SAR analysis of small molecule Activators of Apaf-1 in a Fluorescent assay.; assay type: functional; conditions: read-out: EC50_Mean;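 further: caspase-3 cleavage of fluorogenic Rh110 DEVD substrate downstream of apoptosome activation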
T4 sequence (O14727 whole entry): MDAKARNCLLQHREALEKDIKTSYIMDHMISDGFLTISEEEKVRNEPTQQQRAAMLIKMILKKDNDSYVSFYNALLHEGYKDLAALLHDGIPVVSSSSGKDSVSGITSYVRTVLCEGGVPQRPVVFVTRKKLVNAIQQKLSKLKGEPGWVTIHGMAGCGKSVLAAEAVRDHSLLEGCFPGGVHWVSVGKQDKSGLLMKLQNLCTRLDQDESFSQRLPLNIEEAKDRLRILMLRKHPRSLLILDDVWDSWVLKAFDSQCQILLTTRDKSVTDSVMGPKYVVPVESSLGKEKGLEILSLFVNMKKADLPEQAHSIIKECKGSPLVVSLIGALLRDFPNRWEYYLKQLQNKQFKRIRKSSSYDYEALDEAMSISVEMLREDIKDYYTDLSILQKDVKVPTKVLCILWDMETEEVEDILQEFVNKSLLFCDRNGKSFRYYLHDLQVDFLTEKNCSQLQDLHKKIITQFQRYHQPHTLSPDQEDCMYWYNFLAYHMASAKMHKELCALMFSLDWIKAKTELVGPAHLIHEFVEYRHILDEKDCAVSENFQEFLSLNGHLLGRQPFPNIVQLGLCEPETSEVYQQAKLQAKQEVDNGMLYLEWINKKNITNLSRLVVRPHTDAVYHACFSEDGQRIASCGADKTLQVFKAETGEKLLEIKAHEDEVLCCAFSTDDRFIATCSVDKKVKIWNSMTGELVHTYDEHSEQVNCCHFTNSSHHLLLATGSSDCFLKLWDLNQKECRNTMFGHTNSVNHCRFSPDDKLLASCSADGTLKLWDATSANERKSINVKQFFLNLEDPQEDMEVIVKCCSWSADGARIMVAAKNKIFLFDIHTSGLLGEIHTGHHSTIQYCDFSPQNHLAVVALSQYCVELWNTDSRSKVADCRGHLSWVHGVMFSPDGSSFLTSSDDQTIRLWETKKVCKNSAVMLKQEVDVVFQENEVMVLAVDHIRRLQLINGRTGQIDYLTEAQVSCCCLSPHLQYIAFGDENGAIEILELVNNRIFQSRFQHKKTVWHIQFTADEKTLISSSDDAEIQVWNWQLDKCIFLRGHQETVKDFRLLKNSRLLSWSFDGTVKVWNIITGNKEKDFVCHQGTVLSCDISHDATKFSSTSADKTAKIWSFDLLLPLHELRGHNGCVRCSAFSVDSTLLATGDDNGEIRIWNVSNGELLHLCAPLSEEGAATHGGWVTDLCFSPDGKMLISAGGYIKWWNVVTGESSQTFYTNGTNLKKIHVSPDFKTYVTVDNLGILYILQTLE

[16] = Trypanosoma cruzi growth suppression in host cells – NIH3T3 host cells, beta-gal luminescence, confirmation (AID 2044); assay type: functional, cell-based;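 further: intracellular parasites grown in NIH/3T3 mouse fibroblasts as host cells; luminescent beta-galactosidase reporter signal from transgenic T. cruzi replicating inside host cells; inhibitors lower the luminescence signal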
[17] = NIH3T3 cell viability loss – ATP luminescence, mouse fibroblasts, counter-screen, dose response (AID 2010); assay type: functional, cell-based;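 further: cells exposed to compound for about 90 hours before reading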
[18] = target: DNA repair and recombination protein RAD54-like (Homo sapiens, UniProt Q92698); assay: RAD54 Holliday junction migration blockers – biochemical, fluorescence, cherry-picked samples, dose series, confirmation (AID 651657); assay type: functional
[19] = target: SWI/SNF-related matrix-associated actin-dependent regulator of chromatin subfamily A member 2 (Homo sapiens, UniProt P51531); assay: Luminescence-based cell-based high throughput dose response assay to identify activators of the function of SWI/SNF related, matrix associated, actin dependent regulator of chromatin, subfamily a, member 2 (SMARCA2, BRM).; assay type: functional
[20] = Counterscreen for activators of the function of SWI/SNF related, matrix associated, actin dependent regulator of chromatin, subfamily a, member 2 (SMARCA2, BRM): Luminescence-based cell-based high throughput dose response assay to identify non-selective compounds using the VP16 reporter assay.; assay type: functional

T2 sequence (P10145 whole entry): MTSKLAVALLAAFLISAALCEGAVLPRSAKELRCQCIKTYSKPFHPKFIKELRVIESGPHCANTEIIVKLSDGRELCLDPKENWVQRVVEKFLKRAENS
Chain of Latent membrane protein 1 (P03230 whole entry): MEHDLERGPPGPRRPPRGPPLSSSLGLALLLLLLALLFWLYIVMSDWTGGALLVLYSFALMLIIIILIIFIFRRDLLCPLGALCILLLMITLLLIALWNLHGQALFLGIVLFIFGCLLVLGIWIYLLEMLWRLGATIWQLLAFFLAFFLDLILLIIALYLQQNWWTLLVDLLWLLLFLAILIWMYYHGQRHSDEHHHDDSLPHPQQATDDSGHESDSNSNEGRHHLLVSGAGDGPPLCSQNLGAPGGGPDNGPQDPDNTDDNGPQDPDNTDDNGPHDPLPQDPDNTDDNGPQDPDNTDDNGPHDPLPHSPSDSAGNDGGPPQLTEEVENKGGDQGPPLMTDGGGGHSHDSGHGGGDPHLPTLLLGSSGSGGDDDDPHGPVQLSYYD
Chain of SWI/SNF-related matrix-associated actin-dependent regulator of chromatin subfamily A member 2 (P51531 whole entry): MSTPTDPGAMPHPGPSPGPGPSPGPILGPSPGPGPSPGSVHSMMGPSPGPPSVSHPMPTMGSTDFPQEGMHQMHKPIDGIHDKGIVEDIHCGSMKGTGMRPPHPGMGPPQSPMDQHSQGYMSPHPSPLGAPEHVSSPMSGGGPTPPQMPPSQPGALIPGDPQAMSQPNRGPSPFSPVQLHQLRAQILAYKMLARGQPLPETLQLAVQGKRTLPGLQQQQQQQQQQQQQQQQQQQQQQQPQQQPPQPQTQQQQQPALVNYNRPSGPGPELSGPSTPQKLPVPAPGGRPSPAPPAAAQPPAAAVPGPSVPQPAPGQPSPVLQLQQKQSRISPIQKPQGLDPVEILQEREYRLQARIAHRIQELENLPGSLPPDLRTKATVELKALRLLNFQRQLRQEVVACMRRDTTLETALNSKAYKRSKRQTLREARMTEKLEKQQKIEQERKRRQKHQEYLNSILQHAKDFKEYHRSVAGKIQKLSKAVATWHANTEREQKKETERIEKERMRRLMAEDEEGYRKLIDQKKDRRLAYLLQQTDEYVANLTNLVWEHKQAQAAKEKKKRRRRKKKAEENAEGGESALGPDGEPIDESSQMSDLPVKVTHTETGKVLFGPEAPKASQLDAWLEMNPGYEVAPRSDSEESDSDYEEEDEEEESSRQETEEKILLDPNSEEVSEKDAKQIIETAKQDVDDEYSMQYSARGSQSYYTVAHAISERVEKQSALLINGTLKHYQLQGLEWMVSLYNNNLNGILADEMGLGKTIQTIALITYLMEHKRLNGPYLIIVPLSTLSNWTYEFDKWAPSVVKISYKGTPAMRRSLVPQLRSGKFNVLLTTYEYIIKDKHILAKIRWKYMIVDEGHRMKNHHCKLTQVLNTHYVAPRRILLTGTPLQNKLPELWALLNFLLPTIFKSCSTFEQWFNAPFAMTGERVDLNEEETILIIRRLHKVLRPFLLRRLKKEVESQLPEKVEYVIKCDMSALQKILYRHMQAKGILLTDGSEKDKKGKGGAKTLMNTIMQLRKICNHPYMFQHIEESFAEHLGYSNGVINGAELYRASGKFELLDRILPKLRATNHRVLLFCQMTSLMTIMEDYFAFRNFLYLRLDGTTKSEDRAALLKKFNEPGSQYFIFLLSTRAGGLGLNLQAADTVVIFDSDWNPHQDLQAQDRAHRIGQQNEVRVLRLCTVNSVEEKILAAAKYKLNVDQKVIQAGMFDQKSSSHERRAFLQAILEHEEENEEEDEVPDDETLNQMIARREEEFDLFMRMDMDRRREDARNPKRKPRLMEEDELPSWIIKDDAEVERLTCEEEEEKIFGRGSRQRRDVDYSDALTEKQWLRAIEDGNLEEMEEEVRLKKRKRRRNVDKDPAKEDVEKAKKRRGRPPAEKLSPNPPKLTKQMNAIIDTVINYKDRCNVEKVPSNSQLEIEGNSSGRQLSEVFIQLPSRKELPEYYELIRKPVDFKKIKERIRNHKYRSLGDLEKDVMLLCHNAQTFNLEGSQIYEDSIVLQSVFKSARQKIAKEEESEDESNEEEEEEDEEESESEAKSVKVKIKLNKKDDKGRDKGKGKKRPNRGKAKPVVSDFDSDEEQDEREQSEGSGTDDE
Chain of DNA repair and recombination protein RAD54-like (Q92698 whole entry): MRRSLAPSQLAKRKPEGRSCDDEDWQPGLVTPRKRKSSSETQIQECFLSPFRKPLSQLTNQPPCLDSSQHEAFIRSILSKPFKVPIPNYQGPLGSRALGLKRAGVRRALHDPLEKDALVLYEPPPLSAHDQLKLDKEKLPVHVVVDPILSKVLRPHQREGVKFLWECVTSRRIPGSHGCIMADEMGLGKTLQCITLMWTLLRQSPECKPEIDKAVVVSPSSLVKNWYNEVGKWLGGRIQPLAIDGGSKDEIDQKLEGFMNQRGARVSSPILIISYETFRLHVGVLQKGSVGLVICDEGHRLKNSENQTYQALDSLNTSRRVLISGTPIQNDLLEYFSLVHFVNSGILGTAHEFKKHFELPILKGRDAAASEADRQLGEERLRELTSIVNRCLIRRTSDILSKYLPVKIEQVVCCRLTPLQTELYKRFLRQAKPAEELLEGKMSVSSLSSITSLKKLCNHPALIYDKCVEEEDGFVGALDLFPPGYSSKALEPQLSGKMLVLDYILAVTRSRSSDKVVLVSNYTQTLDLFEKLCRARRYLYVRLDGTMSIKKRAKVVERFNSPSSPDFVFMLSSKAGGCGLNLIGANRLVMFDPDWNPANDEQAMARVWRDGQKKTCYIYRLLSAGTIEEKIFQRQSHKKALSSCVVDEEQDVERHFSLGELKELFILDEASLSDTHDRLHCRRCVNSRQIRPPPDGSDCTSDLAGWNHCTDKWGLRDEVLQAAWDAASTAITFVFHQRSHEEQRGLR
Chain of FAD-linked sulfhydryl oxidase ALR (P55789 whole entry): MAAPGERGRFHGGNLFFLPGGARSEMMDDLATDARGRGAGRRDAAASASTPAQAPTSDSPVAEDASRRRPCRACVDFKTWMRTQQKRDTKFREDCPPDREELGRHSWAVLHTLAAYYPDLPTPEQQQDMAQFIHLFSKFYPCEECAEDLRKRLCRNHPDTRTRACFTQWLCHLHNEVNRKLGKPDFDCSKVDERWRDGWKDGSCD
Chain of Melanin-concentrating hormone receptor 1 (Q99705 whole entry): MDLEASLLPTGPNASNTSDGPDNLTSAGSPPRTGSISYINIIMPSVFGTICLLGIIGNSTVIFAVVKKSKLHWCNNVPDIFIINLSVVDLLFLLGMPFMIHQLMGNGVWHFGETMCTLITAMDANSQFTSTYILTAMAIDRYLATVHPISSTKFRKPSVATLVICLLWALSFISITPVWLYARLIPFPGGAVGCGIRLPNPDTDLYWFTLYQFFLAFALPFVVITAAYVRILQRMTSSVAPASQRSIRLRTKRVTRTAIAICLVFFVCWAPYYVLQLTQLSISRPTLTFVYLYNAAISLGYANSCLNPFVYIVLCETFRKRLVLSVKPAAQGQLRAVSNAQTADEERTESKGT

SMILES: COc1ccc(OC2C(=O)N(Cc3ccc4c(c3)OCO4)C2c2sccc2C)cc1 (configuration not stated)
- EC50 [1]: > 160 µM (inactive)
- EC50 [2]: > 195 µM (not active)
- EC50 [3]: > 38 µM (not active)
- AC50 [4]: 29.8 µM (active)
- AC50 [5]: 40.4 µM (active)

SMILES: CCOC(=O)c1c(-n2cccc2)sc2c1CCCC2=O
- AC50 (HEK293 [6]): 12.3 µM (active)
- AC50 [7]: 4.1 µM (active)

SMILES: COc1ccc(C(=O)Nc2ccc(NC(=O)c3cc4ccccc4o3)cc2)cc1[N+](=O)[O-]
- IC50 (HEK293 [8]): > 80 µM (inactive)
- IC50 (Jurkat): 76.7 µM (inactive)
- IC50 (HEK293 [9]): > 80 µM (inactive)

- AC50 [10]: 9.8 µM (active)
- IC50 (Interleukin-8 [11]): > 79 µM (inactive)
- IC50 (Interleukin-8 [12]): 43.5 µM (inactive)
SMILES: COc1ccc(-c2c[nH]nc2-c2ccc(OC)cc2O)cc1

- IC50 [13]: > 20 µM (inactive)
- IC50 [14]: > 20 µM (inactive)
SMILES: CCOc1ccc(Oc2c(N3CCCC3)c(Br)nn(Cc3cccc4ccccc34)c2=O)cc1

- EC50 [2]: > 195 µM (not active)
- EC50 [15]: > 100 µM (inactive)
SMILES: Cc1c(NC(=O)C2CC(c3ccc(F)cc3)=NO2)c(=O)n(-c2ccccc2)n1C (configuration not stated)

SMILES: COc1cc2nc(N(C)C)nc(N)c2cc1OC
- EC50 [16]: 6.08 µM (active)
- EC50 [17]: > 60 µM (not active)
- AC50 [18]: 12.5 µM (active)
- EC50 [19]: 37 µM (inactive)
- EC50 [20]: > 91.2 µM (inactive)
